Laboratory results: US11254688B2 (Boehringer Ingelheim International GmbH, priority 2018, dated 2022)
Where a name gives a salt, the structure may show the parent alone.

The compounds below were run against T1, hGOAT (Homo sapiens, UniProt Q96T53) (assay: Determination of hGOAT activity in HEK293 cells after incubation with test compound (acyl-ghrelin ELISA)). Conditions: HEK293 cells stably transfected with preproghrelin and human GOAT; octanoate-BSA 100 μM; 5 hours incubation; acyl-ghrelin in medium by ELISA; 8 compound concentrations.
T1 construct: expressed in transfected cells; host or cells: HEK293 (Hek293 hGOAT/PPGhrl Clone #1B8)
T1 sequence (Q96T53 1-435): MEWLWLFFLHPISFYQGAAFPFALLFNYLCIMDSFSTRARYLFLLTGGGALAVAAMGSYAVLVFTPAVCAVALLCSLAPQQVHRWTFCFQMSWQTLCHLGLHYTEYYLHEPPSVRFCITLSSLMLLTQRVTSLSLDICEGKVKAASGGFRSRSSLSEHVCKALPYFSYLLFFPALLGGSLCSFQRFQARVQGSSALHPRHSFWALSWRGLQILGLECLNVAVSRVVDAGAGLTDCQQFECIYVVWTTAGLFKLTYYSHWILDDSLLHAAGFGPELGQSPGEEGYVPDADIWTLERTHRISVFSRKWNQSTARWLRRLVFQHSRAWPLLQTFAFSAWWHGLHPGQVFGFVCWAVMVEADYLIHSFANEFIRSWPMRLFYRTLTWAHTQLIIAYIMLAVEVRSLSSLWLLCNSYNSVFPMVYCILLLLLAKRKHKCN
Type: cell-based

Compound | IC50 [nM]
Cc1nc2nonc2c(N)c1Cc1ccc(Br)c(C(N)=O)c1 [Compound 19.5, 5-({7-Amino-5-methyl-[1,2,5]oxadiazolo[3,4-b]pyridin-6-yl}methyl)-2-bromobenzamide] | 2.22
Cc1nc2nonc2c(N)c1Cc1ccc(Cl)n2cnnc12 [Compound 4.14, 6-({5-Chloro-[1,2,4]triazolo[4,3-a]pyridin-8-yl}methyl)-5-methyl-[1,2,5]oxadiazolo[3,4-b]pyridin-7-amine] | 0.665
Cc1nc2nonc2c(N)c1Cc1ccc(OC(F)(F)F)c(N=S(C)(C)=O)c1 [Compound 13.2, {[5-({7-Amino-5-methyl-[1,2,5]oxadiazolo[3,4-b]pyridin-6-yl}methyl)-2-(trifluoromethoxy)phenyl]imino}dimethyl-λ^6-sulfanone] | 0.033
Cc1nc2nonc2c(N)c1Cc1ccc(F)cc1 [Compound 4.50, 6-[(4-Fluorophenyl)methyl]-5-methyl-[1,2,5]oxadiazolo[3,4-b]pyridin-7-amine] | 0.751
Cc1nc2nonc2c(N)c1Cc1ccc(-c2cn(C)nc2C(F)(F)F)nc1 [Compound 12.7, 5-Methyl-6-({6-[1-methyl-3-(trifluoromethyl)-1H-pyrazol-4-yl]pyridin-3-yl}methyl)-[1,2,5]oxadiazolo[3,4-b]pyridin-7-amine] | 1.17
Cc1nc2nonc2c(N)c1Cc1cccc(-c2ccn[nH]2)c1 [Compound 12.1, 5-Methyl-6-{[3-(1H-pyrazol-5-yl)phenyl]methyl}-[1,2,5]oxadiazolo[3,4-b]pyridin-7-amine] | 0.079
Cc1nc2nonc2c(N)c1Cc1cccn2cnnc12 [Compound 4.11, 5-Methyl-6-({[1,2,4]triazolo[4,3-a]pyridin-8-yl}methyl)-[1,2,5]oxadiazolo[3,4-b]pyridin-7-amine] | 3.42
Cc1nc2nonc2c(N)c1Cc1ccc(O)cc1 [Compound 10.1, 4-(7-Amino-5-methyl-[1,2,5]oxadiazolo[3,4-b]pyridin-6-ylmethyl)-phenol] | 0.594
Cc1nc2nonc2c(N)c1Cc1ccc(C#N)c(OCC(F)(F)F)c1 [Compound 21.1, 4-({7-Amino-5-methyl-[1,2,5]oxadiazolo[3,4-b]pyridin-6-yl}methyl)-2-(2,2,2-trifluoroethoxy)benzonitrile] | 0.099
Cc1nc2nonc2c(N)c1Cc1ccc(C#N)nc1 [Compound 4.6, 5-({7-Amino-5-methyl-[1,2,5]oxadiazolo[3,4-b]pyridin-6-yl}methyl)pyridine-2-carbonitrile] | 3.1
Cc1nc2nonc2c(N)c1Cc1cccc(C(F)(F)F)c1 [Compound 4.38, 5-Methyl-6-{[3-(trifluoromethyl)phenyl]methyl}-[1,2,5]oxadiazolo[3,4-b]pyridin-7-amine] | 0.268
Cc1nc2nonc2c(N)c1Cc1ccc(C#N)c(O[C@H]2CCC(=O)NC2)c1 [Compound 21.9, 4-({7-Amino-5-methyl-[1,2,5]oxadiazolo[3,4-b]pyridin-6-yl}methyl)-2-{[(3S)-6-oxopiperidin-3-yl]oxy}benzonitrile] | 17
Cc1nc2nonc2c(N)c1Cc1ccc(OC(F)F)nc1 [Compound 4.16, 6-{[6-(Difluoromethoxy)pyridin-3-yl]methyl}-5-methyl-[1,2,5]oxadiazolo[3,4-b]pyridin-7-amine] | 0.642
Cc1nc2nonc2c(N)c1Cc1cc(F)c(F)c(F)c1 [Compound 4.52, 5-Methyl-6-[(3,4,5-trifluorophenyl)methyl]-[1,2,5]oxadiazolo[3,4-b]pyridin-7-amine] | 1.59
Cc1nc2nonc2c(N)c1Cc1ccc(C#N)c(O[C@H]2CCNC2=O)c1 [Compound 21.3, 4-({7-Amino-5-methyl-[1,2,5]oxadiazolo[3,4-b]pyridin-6-yl}methyl)-2-{[(3S)-2-oxopyrrolidin-3-yl]oxy}benzonitrile] | 1.58
Cc1nc2nonc2c(N)c1Cc1ccc(-c2c(C)noc2C)nc1 [Compound 12.6, 6-{[6-(3,5-Dimethyl-1,2-oxazol-4-yl)pyridin-3-yl]methyl}-5-methyl-[1,2,5]oxadiazolo[3,4-b]pyridin-7-amine] | 0.402
Cc1nc2nonc2c(N)c1Cc1ccc(SC(F)(F)F)cc1 [Compound 4.32, 5-Methyl-6-({4-[(trifluoromethyl)sulfanyl]phenyl}methyl)-[1,2,5]oxadiazolo[3,4-b]pyridin-7-amine] | 0.064
Cc1nc2nonc2c(N)c1Cc1cccc(C#N)c1 [Compound 4.36, 3-(7-Amino-5-methyl-[1,2,5]oxadiazolo[3,4-b]pyridin-6-ylmethyl)-benzonitrile] | 5.8
Cc1nc2nonc2c(N)c1Cc1ccc(C(=O)NC2(CO)CC2)cc1 [Compound 14.6, 4-({7-Amino-5-methyl-[1,2,5]oxadiazolo[3,4-b]pyridin-6-yl}methyl)-N-[1-(hydroxymethyl)cyclopropyl]benzamide] | 4.27
Cc1nc2nonc2c(N)c1Cc1ccc(-c2ccsc2C#N)n2cnnc12 [Compound 12.12, 3-[8-({7-Amino-5-methyl-[1,2,5]oxadiazolo[3,4-b]pyridin-6-yl}methyl)-[1,2,4]triazolo[4,3-a]pyridin-5-yl]thiophene-2-carbonitrile] | 1.25
Cc1nc2nonc2c(N)c1Cc1ccc(C(=O)NCC2(C)COC2)cc1 [Compound 14.13, 4-({7-Amino-5-methyl-[1,2,5]oxadiazolo[3,4-b]pyridin-6-yl}methyl)-N-[(3-methyloxetan-3-yl)methyl]benzamide] | 4.99
CN(C)c1nc2nonc2c(N)c1Cc1ccc(C(F)(F)F)cc1 [Compound 24.3, N5,N5-Dimethyl-6-{[4-(trifluoromethyl)phenyl]methyl}-[1,2,5]oxadiazolo[3,4-b]pyridine-5,7-diamine Trifluoroacetic Acid Salt] | 6.12
Cc1nc2nonc2c(N)c1Cc1ccc(C(N)=O)cc1 [Compound 14.1, 4-({7-Amino-5-methyl-[1,2,5]oxadiazolo[3,4-b]pyridin-6-yl}methyl)benzamide] | 6.29
Nc1c(Cc2ccc(OC(F)(F)F)cc2)c(Cl)nc2nonc12 [Compound 23.3, 5-Chloro-6-{[4-(trifluoromethoxy)phenyl]methyl}-[1,2,5]oxadiazolo[3,4-b]pyridin-7-amine] | 0.298

Further compounds by falling IC50, results first:

IC50 [nM] | Compound
4.84 | Cc1nc2nonc2c(N)c1Cc1cnc(Cl)cc1C(F)F [Compound 25.2, 6-{[6-Chloro-4-(difluoromethyl)pyridin-3-yl]methyl}-5-methyl-[1,2,5]oxadiazolo[3,4-b]pyridin-7-amine]
3.5 | Cc1nc2nonc2c(N)c1Cc1ccc(Cl)nc1C(F)F [Compound 25.1, 6-{[6-Chloro-2-(difluoromethyl)pyridin-3-yl]methyl}-5-methyl-[1,2,5]oxadiazolo[3,4-b]pyridin-7-amine]
3.41 | Cc1nc2nonc2c(N)c1Cc1ccn2ncnc2c1 [Compound 4.21, 5-Methyl-6-({[1,2,4]triazolo[1,5-a]pyridin-7-yl}methyl)-[1,2,5]oxadiazolo[3,4-b]pyridin-7-amine]
3.24 | Cc1nc2nonc2c(N)c1Cc1ccc(-n2cccn2)nc1 [Compound 20.2, 5-Methyl-6-{[6-(1H-pyrazol-1-yl)pyridin-3-yl]methyl}-[1,2,5]oxadiazolo[3,4-b]pyridin-7-amine Trifluoro-Acetic Acid Salt]
2.57 | Cc1nc2nonc2c(N)c1Cc1ccc(OC2CCOC2)nc1 (stereo not shown) [Compound 21.10, 5-Methyl-6-{[6-(oxolan-3-yloxy)pyridin-3-yl]methyl}-[1,2,5]oxadiazolo[3,4-b]pyridin-7-amine]
2.06 | Cc1nc2nonc2c(N)c1Cc1ccc(F)c(C(N)=O)c1 [Compound 19.6, 5-({7-Amino-5-methyl-[1,2,5]oxadiazolo[3,4-b]pyridin-6-yl}methyl)-2-fluorobenzamide]
1.83 | Cc1nc2nonc2c(N)c1Cc1ccc(C(=O)Nc2cn(C)nc2C(F)(F)F)cc1 [Compound 14.7, 4-({7-Amino-5-methyl-[1,2,5]oxadiazolo[3,4-b]pyridin-6-yl}methyl)-N-[1-methyl-3-(trifluoromethyl)-1H-pyrazol-4-yl]benzamide]
0.921 | Cc1nc2nonc2c(N)c1Cc1ccc([S+](C)[O-])cc1 (stereo not shown) [Compound 18.1, 6-[(4-Methanesulfinylphenyl)methyl]-5-methyl-[1,2,5]oxadiazolo[3,4-b]pyridin-7-amine]
0.737 | Nc1c(Cc2ccc(F)cc2)c(Cl)nc2nonc12 [Compound 23.5, 5-Chloro-6-[(4-fluorophenyl)methyl]-[1,2,5]oxadiazolo[3,4-b]pyridin-7-amine]
0.665 | Cc1nc2nonc2c(N)c1Cc1ccc(C(=O)N(C)C)cc1 [Compound 14.2, 4-({7-Amino-5-methyl-[1,2,5]oxadiazolo[3,4-b]pyridin-6-yl}methyl)-N,N-dimethylbenzamide]
0.428 | Cc1nc2nonc2c(N)c1Cc1cccc(OC(F)(F)F)c1 [Compound 4.41, 5-Methyl-6-{[3-(trifluoromethoxy)phenyl]methyl}-[1,2,5]oxadiazolo[3,4-b]pyridin-7-amine]
0.096 | Cc1nc2nonc2c(N)c1Cc1ccc(OC(F)(F)F)c(Br)c1 [Compound 2.14, 6-{[3-Bromo-4-(trifluoromethoxy)phenyl]methyl}-5-methyl-[1,2,5]oxadiazolo[3,4-b]pyridin-7-amine]
0.066 | COc1cc(C(F)(F)F)ccc1Cc1c(C)nc2nonc2c1N [Compound 2.2, 6-{[2-Methoxy-4-(trifluoromethyl)phenyl]methyl}-5-methyl-[1,2,5]oxadiazolo[3,4-b]pyridin-7-amine]
